Laboratory results reported in US9834544B2, “Sweet flavor modifier” (SENOMYX, INC., priority 2011, dated 2017).

Structure (SMILES) | melting point
Cc1nc2cccc(O[C@H]3CC[C@H](NC(=O)C(C)C)CC3)c2c(N)c1C(=O)O [Example 4, 4-amino-5-(((1,4)-trans-4-isobutyramidocyclohexyl)oxy)-2-methylquinoline-3-carboxylic acid] | 183 to 185 °C
Cc1nc2cccc(OCC(C)(C)NC(=O)C3CCOCC3)c2c(N)c1C(=O)O [Example 7, 4-amino-2-methyl-5-(2-methyl-2-(tetrahydro-2H-pyran-4-carboxamido)-propoxy)quinoline-3-carboxylic acid] | 170 to 173 °C
Cc1nc2cccc(OCC(C)(C)NC(=O)C3CCC3)c2c(N)c1C(=O)O [Example 9, 4-amino-5-(2-(cyclobutanecarboxamido)-2-methylpropoxy)-2-methylquino-line-3-carboxylic acid] | 186 to 190 °C
Cc1nc2cccc(OC3CCN(C(=O)C(C)C)CC3)c2c(N)c1C(=O)O [Example 10, 4-amino-5-((1-isobutyrylpiperidin-4-yl)oxy)-2-methylquinoline-3-carboxylic acid] | 184 to 186 °C
Cc1nc2cccc(OCC(C)(C)NC(=O)CC3CCOCC3)c2c(N)c1C(=O)O [Example 13, 4-amino-2-methyl-5-(2-methyl-2-(2-(tetrahydro-2H-pyran-4-yl)acetamido)-propoxy)quinoline-3-carboxylic acid] | 175 to 178 °C
Cc1nc2cccc(OCC(C)(C)NC(=O)CN3CCOCC3)c2c(N)c1C(=O)O [Example 17, 4-amino-2-methyl-5-(2-methyl-2-(2-morpholinoacetamido)propoxy)quinoline-3-carboxylic acid] | 173 to 175 °C
CCC(=O)N1CCC(COc2cccc3nc(C)c(C(=O)O)c(N)c23)CC1 [Example 21, 4-amino-2-methyl-5-((1-propionylpiperidin-4-yl)methoxy)quinoline-3-carboxylic acid] | 168 to 170 °C
CNC(=O)[C@H]1CC[C@H](Oc2cccc3nc(C)c(C(=O)O)c(N)c23)CC1 [Example 22, 4-amino-2-methyl-5-(((1,4)-trans-4-(methylcarbamoyl)cyclohexyl)oxy)quinoline-3-carboxylic acid] | 195 to 198 °C

The next lines start with the values.

melting point | Structure (SMILES)
227 to 229 °C | Cc1nc2cccc(OCC(C)(C)C(=O)NC3CC3)c2c(N)c1C(=O)O [Example 2, 4-amino-5-(3-(cyclopropylamino)-2,2-dimethyl-3-oxopropoxy)-2-methyl-quinoline-3-carboxylic acid]
183 to 187 °C | Cc1nc2cccc(OCC(C)(C)C(=O)NC3CCC3)c2c(N)c1C(=O)O [Example 3, 4-amino-5-(3-(cyclobutylamino)-2,2-dimethyl-3-oxopropoxy)-2-methylquino-line-3-carboxylic acid]
195 to 198 °C | Cc1nc2cccc(OCC(C)(C)NC(=O)CC(C)C)c2c(N)c1C(=O)O [Example 5, 4-amino-2-methyl-5-(2-methyl-2-(3-methylbutanamido)propoxy)quinoline-3-carboxylic acid]
184 to 186 °C | Cc1nc2cccc(OCC(C)(C)NC(=O)C(C)C)c2c(N)c1C(=O)O [Example 6, 4-amino-5-(2-isobutyramido-2-methylpropoxy)-2-methylquinoline-3-carboxylic acid]
189 to 193 °C | CCC(=O)NC(C)(C)COc1cccc2nc(C)c(C(=O)O)c(N)c12 [Example 8, 4-amino-2-methyl-5-(2-methyl-2-propionamidopropoxy)quinoline-3-carboxylic acid]
168 to 170 °C | CCNC(=O)C(C)(C)COc1cccc2nc(C)c(C(=O)O)c(N)c12 [Example 12, 4-amino-5-(3-(ethylamino)-2,2-dimethyl-3-oxopropoxy)-2-methylquinoline-3-carboxylic acid]
177 to 179 °C | Cc1nc2cccc(OCC(C)(C)C(=O)NCC3CC3)c2c(N)c1C(=O)O [Example 14, 4-amino-5-(3-((cyclopropylmethyl)amino)-2,2-dimethyl-3-oxopropoxy)-2-methylquinoline-3-carboxylic acid]
195 to 199 °C | CCCCNC(=O)C(C)(C)COc1cccc2nc(C)c(C(=O)O)c(N)c12 [Example 15, 4-amino-5-(3-(butylamino)-2,2-dimethyl-3-oxopropoxy)-2-methylquinoline-3-carboxylic acid]
172 to 174 °C | CCC(CC)NC(=O)C(C)(C)COc1cccc2nc(C)c(C(=O)O)c(N)c12 [Example 16, 4-amino-5-(2,2-dimethyl-3-oxo-3-(pentan-3-ylamino)propoxy)-2-methyl-quinoline-3-carboxylic acid]
170 to 172 °C | Cc1nc2cccc(OCC(C)(C)C(=O)NCC3CCC3)c2c(N)c1C(=O)O [Example 19, 4-amino-5-(3-((cyclobutylmethyl)amino)-2,2-dimethyl-3-oxopropoxy)-2-methylquinoline-3-carboxylic acid]
